Activity calls are given as the source filed them.
Assays:
[1] = biological target: T1, Carboxy-terminal domain RNA polymerase II polypeptide A small phosphatase 1 (Homo sapiens, UniProt Q9GZU7); assay: inhibitors of CTDSP1, concentration-response testing, biochemical assay, absorbance-based, actives from ultra-high-throughput screening (AID 540297); format: functional
T1 sequence (Q9GZU7 whole entry): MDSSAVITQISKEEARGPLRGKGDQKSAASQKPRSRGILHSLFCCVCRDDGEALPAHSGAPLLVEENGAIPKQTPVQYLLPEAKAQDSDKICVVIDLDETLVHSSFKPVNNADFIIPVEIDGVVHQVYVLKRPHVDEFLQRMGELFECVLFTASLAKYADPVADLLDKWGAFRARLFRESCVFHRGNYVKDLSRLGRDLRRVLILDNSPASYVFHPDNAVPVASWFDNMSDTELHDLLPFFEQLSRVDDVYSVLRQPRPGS

[2] = P. falciparum Dd2 growth inhibitors, dose response, SYBR Green, cherry-picked samples (AID 1159567); format: functional, cell-based
[3] = biological target: Luciferin 4-monooxygenase (Photinus pyralis, UniProt P08659); assay: firefly luciferase enzyme inhibitors, dose response, biochemical, luminescence (AID 1891)
Chain of Luciferin 4-monooxygenase (P08659 whole entry): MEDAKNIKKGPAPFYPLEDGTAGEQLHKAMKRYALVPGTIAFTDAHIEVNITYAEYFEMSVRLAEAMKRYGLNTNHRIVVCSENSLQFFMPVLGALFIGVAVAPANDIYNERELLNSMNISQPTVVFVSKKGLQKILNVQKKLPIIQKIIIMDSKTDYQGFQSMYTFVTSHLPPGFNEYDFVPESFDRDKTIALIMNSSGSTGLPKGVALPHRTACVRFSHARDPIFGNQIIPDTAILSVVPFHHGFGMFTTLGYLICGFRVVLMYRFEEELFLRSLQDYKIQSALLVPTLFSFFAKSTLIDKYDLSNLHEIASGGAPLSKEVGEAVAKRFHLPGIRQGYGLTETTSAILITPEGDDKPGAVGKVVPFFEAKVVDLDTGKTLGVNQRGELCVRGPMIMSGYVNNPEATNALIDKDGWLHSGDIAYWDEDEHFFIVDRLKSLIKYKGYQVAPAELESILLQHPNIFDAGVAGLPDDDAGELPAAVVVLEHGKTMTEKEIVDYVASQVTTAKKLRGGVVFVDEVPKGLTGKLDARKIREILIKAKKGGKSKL

[4] = Luminescence Cell-Based Dose Confirmation HTS to Identify Inhibitors of Platelet Dense Granule Release. [Related pubchem assays: 1663 (Primary HTS), 1678 (Summary of Project)]; format: functional
[5] = growth suppression of PTEN-null colon cells, dose response, cell-based, HCT116 PTEN knockout (AID 1047); format: functional;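 also: HCT116 colon tumor cells with PTEN knocked out; cells exposed to compound for 60 hours before readout; potency for loss of cell viability measured by luminescence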
[6] = growth suppression of beta-catenin-knockout colon cells, dose response, cell-based, HCT116, human colon tumor (AID 1045); format: functional;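 also: HCT116 colon tumor cells with beta catenin knocked out; cells exposed to compound for 60 hours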
[7] = A549 cell cytotoxicity, dose response, cytotoxicity control, plate reader, cherry-pick, antagonist series (AID 743412); format: functional, cell-based
[8] = LGR2 antagonists, dose response, cell-based, HEK293, CRE-luciferase reporter, cherry pick, set 2 (AID 743343); format: functional;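 also: transfected cells were stimulated with diluted bursicon conditioned medium after compound addition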
[9] = MC4R antagonists, dose response, counter-screen for LGR2 antagonist project, cell-based, plate reader, cherry pick (AID 743444); format: functional;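 also: transfected HEK 293 cells stimulated with alpha-MSH peptide; potency of inhibitors of the alpha-MSH evoked signal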
[10] = biological target: Induced myeloid leukemia cell differentiation protein Mcl-1 (Homo sapiens, UniProt Q07820); format: functional
Chain of Induced myeloid leukemia cell differentiation protein Mcl-1 (Q07820 whole entry): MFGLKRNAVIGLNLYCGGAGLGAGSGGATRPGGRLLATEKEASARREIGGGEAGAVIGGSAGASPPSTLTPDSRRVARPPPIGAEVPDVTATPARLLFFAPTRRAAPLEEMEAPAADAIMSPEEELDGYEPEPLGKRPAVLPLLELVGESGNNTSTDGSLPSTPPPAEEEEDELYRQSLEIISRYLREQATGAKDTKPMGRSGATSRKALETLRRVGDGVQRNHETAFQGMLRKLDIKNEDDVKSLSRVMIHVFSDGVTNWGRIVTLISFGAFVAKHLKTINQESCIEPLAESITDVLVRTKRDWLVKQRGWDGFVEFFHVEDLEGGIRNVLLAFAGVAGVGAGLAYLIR

Cytochrome P450 1A2 = biological target: T2, Cytochrome P450 1A2 (Homo sapiens, UniProt P05177);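 also: PubChem cytochrome P450 panel assay, CYP1A2 panel member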
T2 sequence (P05177 whole entry): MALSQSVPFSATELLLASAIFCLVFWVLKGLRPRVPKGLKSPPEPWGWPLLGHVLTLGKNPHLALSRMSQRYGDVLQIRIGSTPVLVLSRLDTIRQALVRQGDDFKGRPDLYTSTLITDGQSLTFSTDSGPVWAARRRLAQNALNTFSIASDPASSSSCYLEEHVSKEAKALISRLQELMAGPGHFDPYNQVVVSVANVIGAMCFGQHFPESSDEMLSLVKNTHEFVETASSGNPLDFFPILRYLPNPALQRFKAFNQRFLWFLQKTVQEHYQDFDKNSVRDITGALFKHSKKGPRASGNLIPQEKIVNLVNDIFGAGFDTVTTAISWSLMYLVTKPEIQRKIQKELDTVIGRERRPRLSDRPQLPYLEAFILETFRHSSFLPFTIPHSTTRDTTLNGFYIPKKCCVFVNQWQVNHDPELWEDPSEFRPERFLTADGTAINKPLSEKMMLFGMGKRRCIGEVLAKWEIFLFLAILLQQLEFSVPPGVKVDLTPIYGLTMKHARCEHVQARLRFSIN

[11] = NIH-3T3 fibroblast cytotoxicity, dose response, cytotoxicity control, cell-based, fluorescence, Alamar Blue, secondary assay (AID 2327); format: functional;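 also: NIH-3T3 mouse fibroblasts cultured with fluconazole at 8 µg/mL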
[12] = C. albicans growth with fluconazole, confirmation, fluorescence, retest (AID 2467); format: functional, cell-based
[13] = inhibitors of clade B AD8 Env fusion, dose response, cell-based, cherry-pick (AID 652062); format: functional;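 also: luciferase signal from cell-cell fusion driven by HIV-1 clade B AD8 Env; potency is for inhibitors of fusion seen as a drop in luminescence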
cells [14] = format: functional, cell-based
cells [15] = format: functional, cell-based; remark: listed apart in the source
[16] = microbe, parasite or virus in culture; format: functional; conditions: Mycobacterium tuberculosis
[17] = inhibitors of firefly luciferase expression or activity, dose response, H4 neuroglioma cells, luminescence (AID 1990); format: functional, cell-based
[18] = Luminescence Cell-Based Dose Response HTS to Identify Inhibitors of 5'UTR Stem-Loop Driven Prion Protein mRNA Translation in H4 Neuroglioblastoma Cells. [Related pubchem assays: 1827 (Project Summary), 1813 (Primary HTS)]; format: functional
[19] = inhibitors of SNCA 5'UTR-driven reporter translation, confirmation, H4 neuroglioma cells, luminescence (AID 1988); format: functional, cell-based
cells [20] = format: functional
[21] = Luminescence Cell-Based Dose Retest to Confirm Inhibitors of Cancer Stem Cells. [Related pubchem assays (depositor defined):AID2717, AID2721]; format: functional; conditions: Homo sapiens
Cytochrome P450 3A4 = Cytochrome P450 3A4 (Homo sapiens, UniProt P08684);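 also: CYP3A4 tested as one member of a cytochrome P450 panel screen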
Chain of Cytochrome P450 3A4 (P08684 whole entry): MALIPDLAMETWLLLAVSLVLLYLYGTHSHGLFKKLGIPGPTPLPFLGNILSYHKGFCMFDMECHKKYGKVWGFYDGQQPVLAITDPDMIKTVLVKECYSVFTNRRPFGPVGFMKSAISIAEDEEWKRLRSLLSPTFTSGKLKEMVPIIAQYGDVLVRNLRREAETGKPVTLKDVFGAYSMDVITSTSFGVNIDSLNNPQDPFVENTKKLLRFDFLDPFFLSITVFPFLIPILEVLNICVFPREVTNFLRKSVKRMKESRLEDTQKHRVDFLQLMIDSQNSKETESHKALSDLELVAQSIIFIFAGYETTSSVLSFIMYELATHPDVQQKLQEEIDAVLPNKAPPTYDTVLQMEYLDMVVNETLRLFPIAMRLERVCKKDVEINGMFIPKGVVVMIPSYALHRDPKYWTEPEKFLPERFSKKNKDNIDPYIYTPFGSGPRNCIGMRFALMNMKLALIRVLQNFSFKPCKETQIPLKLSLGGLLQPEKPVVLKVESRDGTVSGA

Cytochrome P450 2C9 = Cytochrome P450 2C9 (Homo sapiens, UniProt P11712)
Chain of Cytochrome P450 2C9 (P11712 whole entry): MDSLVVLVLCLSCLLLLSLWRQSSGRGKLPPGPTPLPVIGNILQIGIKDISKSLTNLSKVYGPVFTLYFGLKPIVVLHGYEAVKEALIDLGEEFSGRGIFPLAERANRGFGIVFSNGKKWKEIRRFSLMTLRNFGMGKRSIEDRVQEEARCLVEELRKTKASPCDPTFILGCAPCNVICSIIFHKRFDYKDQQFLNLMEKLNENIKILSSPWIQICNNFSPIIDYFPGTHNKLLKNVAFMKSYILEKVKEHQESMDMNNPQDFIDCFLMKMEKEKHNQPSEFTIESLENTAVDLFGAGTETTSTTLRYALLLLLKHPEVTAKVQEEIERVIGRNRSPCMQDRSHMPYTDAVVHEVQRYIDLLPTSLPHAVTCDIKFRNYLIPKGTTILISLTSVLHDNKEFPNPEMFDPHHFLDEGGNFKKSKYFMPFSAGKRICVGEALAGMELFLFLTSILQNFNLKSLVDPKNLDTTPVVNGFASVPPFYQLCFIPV

Cytochrome P450 2C19 = Cytochrome P450 2C19 (Homo sapiens, UniProt P33261); assay: Cytochrome panel assay with activity outcomes. Panel member name: p450-cyp2c19 Compounds with AC50 equal or less than 10 uM are considered active; format: functional; conditions: read-out: AC50
Chain of Cytochrome P450 2C19 (P33261 whole entry): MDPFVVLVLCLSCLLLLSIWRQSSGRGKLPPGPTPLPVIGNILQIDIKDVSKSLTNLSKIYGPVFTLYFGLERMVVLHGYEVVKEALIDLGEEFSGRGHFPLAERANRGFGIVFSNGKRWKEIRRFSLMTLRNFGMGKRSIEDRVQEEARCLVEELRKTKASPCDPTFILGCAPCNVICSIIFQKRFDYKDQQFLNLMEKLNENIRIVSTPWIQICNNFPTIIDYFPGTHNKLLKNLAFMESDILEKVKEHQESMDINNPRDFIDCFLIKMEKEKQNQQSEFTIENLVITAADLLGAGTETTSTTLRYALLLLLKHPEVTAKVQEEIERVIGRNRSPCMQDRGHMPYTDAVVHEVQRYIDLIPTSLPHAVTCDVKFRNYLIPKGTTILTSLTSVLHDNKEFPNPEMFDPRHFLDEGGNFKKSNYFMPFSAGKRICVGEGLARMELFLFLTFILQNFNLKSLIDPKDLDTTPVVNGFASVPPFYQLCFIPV

P388/ADR = assay: cells; format: functional; conditions: Mus musculus
SN12K1 = assay: cells; format: functional; conditions: Homo sapiens
H9c2 = assay: cells; format: functional, cell-based; conditions: Rattus norvegicus, H9c2, Myocardium;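 also: confirmatory concentration-response retest of ultra-high-throughput screening hits for modulation of myocardial damage; cell death induced by hydrogen peroxide oxidative stress; compound pretreatment for 60 min then peroxide exposure for 2 h; potency is for protecting the cells against peroxide damage rather than for killing them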

Structure (SMILES): O=C(COC(=O)c1ccc(S(=O)(=O)N2CCCCC2)cc1)NCc1ccco1
- IC50 [1]: 10.5 µM (active)

Structure (SMILES): CCCc1cn([C@@H]2C[C@@H]3O[C@H](CO)CC[C@@H]3O[C@@H]2CCc2ccc(-c3cccc(OC)c3)cc2)nn1
- AC50 [2]: 2.81 µM (active)

Structure (SMILES): Cn1cc(SCC(=O)Nc2nc3ccccc3s2)c2ccccc21
- EC50 [3]: > 112 µM (not active)
- EC50 [4]: > 112 µM (not active)

Structure (SMILES): COc1ccc2c(c1)c(=O)oc1cc(OCC(=O)NC3CC3)ccc12
- EC50 [5]: 14.1 µM (active)
- EC50 [6]: 37.7 µM (active)

Structure (SMILES): CN(C)c1cccc(C(=O)Nc2nc3ccccc3[nH]2)c1
- AC50 [7]: > 52 µM (inactive)
- AC50 [8]: 6.18 µM (active)
- AC50 [9]: 5.96 µM (active)

Structure (SMILES): CCc1c(C)nc2ccc(OC)cc2c1S
- IC50 [10]: 0.628 µM (active)

Structure (SMILES): COc1ccc(CNC(=O)/C=C\c2ccc3[nH]cc(CCN(C)C)c3c2)cc1
- AC50 (Cytochrome P450 1A2): 39.8 µM (inconclusive)

Structure (SMILES): Cc1cc(Cl)nc(NC(=O)CSc2ccc(Cl)cc2)n1
- AC50 (Cytochrome P450 1A2): 5.01 µM (inconclusive)

Structure (SMILES): O=C(c1ccc2c(c1)OCO2)N1CCC2(CC1)Oc1ccc(F)cc1C(=O)C21CC(c2cccnc2)=NO1 (configuration not stated)
- EC50 [11]: 49.2 µM (active)
- EC50 [12]: 0.566 µM (inconclusive)

Structure (SMILES): COc1ccc(/C=C(/NC(=O)c2ccccc2)c2nc3cc(Cl)ccc3[nH]2)cc1OC
- EC50 [11]: > 150 µM (inconclusive)
- EC50 [12]: 4.44 µM (active)

Structure (SMILES): CCc1cnc(N2[C@H](C#N)[C@H](c3ccc(C#Cc4ccccc4F)cc3)[C@H]2CO)s1
- AC50 [13]: 33.6 µM (active)

Structure (SMILES): CCOC(=O)c1cc(C(O)(C(=O)OC)C(F)(F)F)c(/N=C/N(C)C)o1 (configuration not stated)
- IC50 [10]: < 0.4 µM (not active)

Structure (SMILES): CC(=O)N1CCC2(CC1)CC(=O)c1cc(OCC(=O)N3CCN(C)CC3)ccc1O2
- AC50 (Cytochrome P450 1A2): 39.8 µM (inconclusive)

Structure (SMILES): O=C(NCc1ccco1)C1Cc2ccccc2CN1S(=O)(=O)c1ccccc1F (configuration not stated)
- IC50 [1]: 5.41 µM (active)

Structure (SMILES): Cc1cccc(OCC(=O)NCC(=O)N/N=C/c2cccnc2)c1
- EC50 (cells [14]): > 350 µM (not active)
- EC50 (cells [15]): > 350 µM (not active)

Structure (SMILES): O=C1CC(/C=C/c2ccc(Cl)cc2)=Nc2ccccc2N1
- CC50 [16]: 23.8 µM (active)

Structure (SMILES): C=CCOc1nc(-c2ccccc2Cl)nc2ccccc12
- EC50 [17]: 69.1 µM (active)
- EC50 (cells [14]): > 350 µM (not active)
- EC50 [18]: > 120 µM (not active)
- EC50 [19]: 17.4 µM (active)
- EC50 (cells [15]): > 350 µM (not active)

Structure (SMILES): CCCCn1nc(C(=O)N[C@@H](CCSC)c2nc3ccccc3[nH]2)c2ccccc2c1=O
- CC50 [16]: > 40 µM (active)

Structure (SMILES): COC(=O)C1CCN(C(=O)COC(=O)CNS(=O)(=O)c2ccc(SC)c([N+](=O)[O-])c2)CC1
- IC50 [1]: 13.5 µM (active)

Structure (SMILES): CCS(=O)(=O)N1CCC2(CC1)CN(C(=O)Nc1cccc(F)c1)[C@H](CO)c1c2c2ccc(OC)cc2n1C
- AC50 [2]: 4.52 µM (active)

Structure (SMILES): COc1ccc([N+](=O)[O-])cc1C1NN=C(c2cccc3ccccc23)S1 (configuration not stated)
- EC50 [3]: > 112 µM (not active)
- EC50 [4]: > 112 µM (not active)

Structure (SMILES): CCOC(=O)COc1ccc(C(=O)NC2CCCCC2)cc1
- IC50 (cells [20]): 7.69 µM (active)

Structure (SMILES): COc1cc(NS(=O)(=O)c2ccc(N/C=C(\C#N)c3nc4cc(Cl)ccc4o3)cc2)nc(OC)n1
- EC50 [5]: 12.7 µM (active)
- EC50 [6]: 14.7 µM (active)
- AC50 [21]: 2.08 µM (active)

Structure (SMILES): COc1ccc(C(=O)N2CCC[C@@]3(CCN(C(=O)NC(C)C)C3)C2)cc1
- AC50 (Cytochrome P450 1A2): 12.6 µM (inconclusive)
- AC50 (Cytochrome P450 3A4): 20 µM (inconclusive)

Structure (SMILES): O=C1NC(=O)N(CCC2=CCCCC2)C(=O)/C1=C(O)/C=C/c1ccc2c(c1)OCO2
- EC50 [5]: 17.1 µM (active)
- EC50 [6]: 15 µM (active)
- AC50 [21]: 1.37 µM (active)

Structure (SMILES): CCN(C(=O)CSc1nc[nH]n1)C1CCCCC1
- EC50 (cells [14]): > 350 µM (not active)
- EC50 (cells [15]): > 350 µM (not active)

Structure (SMILES): CC1=C(C(N)=O)C(c2ccccn2)n2nc(SCc3ccccc3Cl)nc2N1 (configuration not stated)
- AC50 (Cytochrome P450 1A2): 15.8 µM (inconclusive)
- AC50 (Cytochrome P450 2C9): 20 µM (inconclusive)

Structure (SMILES): Cc1ccc(CN2CC(C(=O)OCc3ccccc3Cl)CC2=O)cc1 (configuration not stated)
- IC50 (cells [20]): 7.41 µM (active)

Structure (SMILES): COc1cnn(-c2ccc(Br)cc2)c(=O)c1SCc1ccccc1
- IC50 [10]: 3.25 µM (not active)

Structure (SMILES): CC1CCN(Cc2c(O)ccc3c(O)c(-c4nc5ccccc5s4)c(=N)oc23)CC1
- EC50 [5]: 16.6 µM (active)
- EC50 [6]: 16.8 µM (active)

Structure (SMILES): CCNc1nc(Oc2ccc(=O)n(-c3ccccc3)n2)nc(N(C)C)n1
- EC50 [3]: > 112 µM (not active)
- EC50 [4]: > 112 µM (not active)

Structure (SMILES): N#C/C(=C\c1ccc[nH]1)C(=O)Nc1ccccc1[N+](=O)[O-]
- IC50 [1]: 7.3 µM (active)

Structure (SMILES): COc1cccc(-c2nc(-c3ccc(C(=O)O)cc3)no2)c1
- EC50 [3]: 0.794 µM (active)
- EC50 [4]: 4.03 µM (active)

Structure (SMILES): CC(=O)NC1=C(NC2CCS(=O)(=O)C2)C(=O)c2ccccc2C1=O (configuration not stated)
- IC50 [10]: 2.54 µM (active)

Structure (SMILES): COc1cc2c(cc1OC)C(c1ccc(N)cc1)=NNC(=O)C2
- AC50 (Cytochrome P450 2C19): 15.8 µM (inconclusive)
- AC50 (Cytochrome P450 1A2): 39.8 µM (inconclusive)
- AC50 (Cytochrome P450 2C9): 39.8 µM (inconclusive)

Structure (SMILES): COc1ccc(NC(=O)c2cc(S(=O)(=O)N3CCOCC3)cn2C)c(OC)c1
- EC50 [3]: > 112 µM (not active)
- EC50 [4]: > 112 µM (not active)

Structure (SMILES): CCOc1ccc(C(C)=O)cc1N1C(=O)C2C3C=CC(C3)C2C1=O (configuration not stated)
- IC50 [1]: 15.8 µM (active)

Structure (SMILES): CC(C)Cc1nc(N2CCN(C(=O)c3ccccc3)CC2)c(C#N)c2c1CCC2
- AC50 (Cytochrome P450 1A2): 25.1 µM (inconclusive)

Structure (SMILES): CCOc1ccc2nc(N=C(S)N(C)C)sc2c1
- EC50 [11]: > 150 µM (inactive)
- EC50 [12]: 2.33 µM (active)

Structure (SMILES): CN(C)c1cccc(OC(=O)NCCCl)c1
- GI50 (P388/ADR): 31 µM (inactive)
- GI50 (SN12K1): > 100 µM (inactive)

Structure (SMILES): Cc1cccc(OCc2nnc(SCC(=O)Nc3ncc(C)s3)o2)c1
- EC50 [3]: > 112 µM (not active)
- EC50 [4]: > 112 µM (not active)

Structure (SMILES): Cn1c(=O)c(Oc2ccc(Cl)cc2)c(O)c2ccccc21
- IC50 (cells [20]): 3.7 µM (active)

Structure (SMILES): O=C(CSc1nnc(C2CC2)n1-c1ccccc1)Nc1ccc(N2CCOCC2)cc1
- EC50 [3]: > 112 µM (not active)
- EC50 [4]: > 112 µM (not active)

Structure (SMILES): CNC(=O)c1ccc(-c2sc3nc(N4CCOCC4)c4c(c3c2N)CCCC4)o1
- EC50 [5]: 23.5 µM (active)
- EC50 [6]: 24.6 µM (active)
- IC50 (H9c2): 14.2 µM (active)

Structure (SMILES): CCCCn1c(CCC(=O)O)ccc1-c1cccs1
- EC50 [3]: > 112 µM (not active)
- EC50 [4]: > 112 µM (not active)

Reference: ChEMBL document CHEMBL1201862, “PubChem BioAssay data set” (2004)
